According to the NIST ThermoML archive (doi:10.1016/j.fluid.2017.03.025):
Values joined by “and” are separate entries in the source; they are usually repeats but may differ in a detail not shown here. Equal values may be shown once.

Test: wn = mass fraction of the nth substance listed
Conditions: discharge crucible method; for mass density / viscosity: 101 kPa, Liquid

[Zn] [zinc] + [Ga]
Conditions	mass density	surface tension liquid-gas	viscosity
323 K, w1 = 0.036	6081 kg/m3	722.9 mN/m	1.576 mPa·s
373 K, w1 = 0.036	6049 kg/m3	719.2 mN/m	1.336 mPa·s
423 K, w1 = 0.036	6018 kg/m3	715.6 mN/m	1.139 mPa·s
423 K, w1 = 0.25	6205 kg/m3	733 mN/m	2.596 mPa·s
473 K, w1 = 0.036	5989 kg/m3	712 mN/m	1.018 mPa·s
473 K, w1 = 0.25	6175 kg/m3	728.9 mN/m	2.037 mPa·s
523 K, w1 = 0.036	5956 kg/m3	708.4 mN/m	0.924 mPa·s
523 K, w1 = 0.25	6146 kg/m3	723.5 mN/m	1.733 mPa·s
573 K, w1 = 0.036	5929 kg/m3	704.9 mN/m	0.845 mPa·s
573 K, w1 = 0.25	6115 kg/m3	718.9 mN/m	1.529 mPa·s
573 K, w1 = 0.5	6355 kg/m3	748.5 mN/m	2.861 mPa·s
623 K, w1 = 0.036	5896 kg/m3	701.2 mN/m	0.779 mPa·s
623 K, w1 = 0.25	6079 kg/m3	714.6 mN/m	1.375 mPa·s
623 K, w1 = 0.5	6323 kg/m3	739.8 mN/m	2.394 mPa·s
623 K, w1 = 0.75	6584 kg/m3	773.5 mN/m	3.588 mPa·s
673 K, w1 = 0.036	5866 kg/m3	697.7 mN/m	0.736 mPa·s
673 K, w1 = 0.25	6052 kg/m3	709.7 mN/m	1.261 mPa·s
673 K, w1 = 0.5	6302 kg/m3	733.3 mN/m	2.112 mPa·s
673 K, w1 = 0.75	6557 kg/m3	764.1 mN/m	3.019 mPa·s
673 K, w1 = 0.9	6721 kg/m3	792.3 mN/m	3.809 mPa·s
723 K, w1 = 0.036	5836 kg/m3	693.8 mN/m and 694.3 mN/m	0.709 mPa·s and 0.699 mPa·s
723 K, w1 = 0.25	6024 kg/m3 and 6025 kg/m3	705.2 mN/m and 705.5 mN/m	1.148 mPa·s and 1.159 mPa·s
723 K, w1 = 0.5	6277 kg/m3 and 6276 kg/m3	725.3 mN/m	1.875 mPa·s and 1.871 mPa·s
723 K, w1 = 0.75	6537 kg/m3 and 6536 kg/m3	753.4 mN/m and 754 mN/m	2.625 mPa·s
723 K, w1 = 0.9	6699 kg/m3 and 6700 kg/m3	780.5 mN/m and 780.4 mN/m	3.225 mPa·s and 3.241 mPa·s
723 K, w1 = 1	6831 kg/m3	812.1 mN/m	3.721 mPa·s
773 K, w1 = 0.036	5806 kg/m3	690.8 mN/m	0.662 mPa·s
773 K, w1 = 0.25	5998 kg/m3	700.4 mN/m	1.098 mPa·s
773 K, w1 = 0.5	6249 kg/m3	717.7 mN/m	1.693 mPa·s
773 K, w1 = 0.75	6512 kg/m3	744.6 mN/m	2.323 mPa·s
773 K, w1 = 0.9	6679 kg/m3	768.7 mN/m	2.813 mPa·s
823 K, w1 = 0.9	6657 kg/m3	755.5 mN/m	2.517 mPa·s
